Source: patent US20140357633A1, “COMPOUNDS FOR INHIBITING THE INTERACTION OF BCL2 WITH BINDING PARTNERS” (NOVARTIS AG, priority 2011, published 2014)
“And” between values parts separate entries of the source, which are not always exact repeats. Equal values may be shown once.

Assays:
[1] = target: BCL-2 (binding to BAD peptide) (Homo sapiens, UniProt P10415); assay: SPR (Biacore) solution inhibition assay, BCL-2 binding to immobilized BAD peptide; settings: biotinylated BAD peptide surface, 56 nM BCL-2, 25° C.; range = high and low IC50 values from multiple experiments; read-out: BCL2_SPR IC50 BAD
Procedure, shortened: (§1)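 Compounds (6-point threefold series, 16 μM to 0.004 nM) preincubated 1 h with 56 nM BCL-2, then injected 60 s over biotinylated peptide captured on streptavidin chips at 25° C. Running buffer: 10 mM HEPES pH 7.4, 150 mM NaCl, 1.25 mM DTT, 3% DMSO, 0.05% polysorbate 20. % inhibition versus BCL-2-only binding gave IC50.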

[2] = target: BCL-2 (binding to BAK peptide) (Homo sapiens, UniProt P10415); assay: SPR (Biacore) solution inhibition assay, BCL-2 binding to immobilized BAK peptide; settings: biotinylated BAK peptide surface, 56 nM BCL-2, 25° C.; range = high and low IC50 values from multiple experiments; read-out: BCL2_SPR IC50 BAK
Procedure, shortened: as §1

Chain of BCL-2 (binding to BAD peptide) (P10415 whole entry): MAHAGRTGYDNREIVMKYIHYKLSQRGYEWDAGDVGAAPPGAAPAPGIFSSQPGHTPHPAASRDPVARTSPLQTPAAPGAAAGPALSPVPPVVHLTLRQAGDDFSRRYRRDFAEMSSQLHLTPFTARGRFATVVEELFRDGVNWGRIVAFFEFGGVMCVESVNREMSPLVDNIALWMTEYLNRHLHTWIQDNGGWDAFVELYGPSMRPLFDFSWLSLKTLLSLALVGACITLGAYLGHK
Chain of BCL-2 (binding to BAK peptide) (P10415 whole entry): as above

| Structure (SMILES) | IC50 [1] | IC50 [2] |
| --- | --- | --- |
| CCCCN(CCCC)C(=O)c1cc(C)n(-c2ccc(NC(=O)Cc3ccc(OC)c(C(F)(F)F)c3)cc2C(=O)N2Cc3ccccc3C[C@H]2CO)n1 [Example 78] | 99.9 to 103 nM | 73.6 to 83.8 nM |
| CCCCC(CCCC)C(=O)c1cc(C)n(-c2ccc(NC(=O)C(CC(=O)O)C3CCCCC3)cc2C(=O)N2Cc3ccccc3C[C@H]2CO)n1 (stereo partly shown) [Example 103] | 54.1 to 55.9 nM | 50.2 to 51.9 nM |
| CCCCN(CCCC)C(=O)c1cc(C)n(-c2ccc(NC(=O)C3CC(=O)N(Cc4ccccc4Cl)C3)cc2C(=O)N2Cc3ccccc3C[C@H]2CO)n1 (stereo partly shown) [Example 41] | 96.4 to 97.6 nM | 75.4 to 83.3 nM |
| CCCCC(CCCC)C(=O)c1cc(C)n(-c2ccc(NC(=O)COc3ccc(N4CCCC4=O)cc3)cc2C(=O)N2Cc3ccccc3C[C@H]2CO)n1 [Example 48] | 846 to 870 nM | 581 to 600 nM |
| CCCCN(CCCC)C(=O)c1cc(C)n(-c2ccc(NC(=O)Cc3nc(-c4ccccc4)oc3C)cc2C(=O)N2Cc3ccccc3C[C@H]2CO)n1 [Example 106] | 131 to 140 nM | 106 to 110 nM |
| CCCCN(CCCC)C(=O)c1cc(C)n(-c2ccc(NC(=O)c3cc(C(C)C)nn3C)cc2C(=O)N2Cc3ccccc3C[C@H]2CO)n1 [Example 47] | 522 to 594 nM | 586 to 600 nM |
| CCCCN(CCCC)C(=O)c1cc(C)n(-c2ccc(NC(=O)c3cnn4cccnc34)cc2C(=O)N2Cc3ccccc3C[C@H]2CO)n1 [Example 107] | 693 to 748 nM | 497 to 520 nM |
| CCCCN(CCCC)C(=O)c1cc(C)n(-c2ccc(NC(=O)OCC)cc2C(=O)N2Cc3ccccc3C[C@H]2CO)n1 [Example 11] | 591 to 599 nM | 550 to 557 nM |
| CCCCN(CCCC)C(=O)c1cc(C)n(-c2ccc(NC(=O)c3ccccc3COc3ccccc3)cc2C(=O)N2Cc3ccccc3C[C@H]2CO)n1 [Example 92] | 1270 to 1350 nM | 1120 to 1180 nM |
| CCCCN(CCCC)C(=O)c1cc(C)n(-c2ccc(NC(=O)OCC(C)C)cc2C(=O)N2Cc3ccccc3C[C@H]2CO)n1 [Example 9] | 499 to 606 nM | 394 to 452 nM |
| CCCCN(CCCC)C(=O)c1cc(C)n(-c2ccc(NC(=O)c3cc4cc(O)ccc4[nH]3)cc2C(=O)N2Cc3ccccc3C[C@H]2CO)n1 [Example 87] | 350 to 375 nM | 486 to 509 nM |

Next, values leading:

| IC50 [1] | IC50 [2] | Structure (SMILES) |
| --- | --- | --- |
| 431 to 444 nM | 597 to 598 nM | CCCCN(CCCC)C(=O)c1cc(C)n(-c2ccc(NC(=O)c3cccnc3Nc3cccc(C(F)(F)F)c3)cc2C(=O)N2Cc3ccccc3C[C@H]2CO)n1 [Example 150] |
| 348 to 392 nM | 339 to 358 nM | CCCCN(CCCC)C(=O)c1cc(C)n(-c2ccc(NC(=O)CS(=O)(=O)c3ccccc3)cc2C(=O)N2Cc3ccccc3C[C@H]2CO)n1 [Example 152] |
| 1020 to 1120 nM and 691 to 730 nM | 629 to 841 nM and 429 to 430 nM | CCCCN(CCCC)C(=O)c1cc(C)n(-c2ccc(NC(=O)c3oc(C)nc3C)cc2C(=O)N2Cc3ccccc3C[C@H]2CO)n1 [Example 108] |
| 317 to 325 nM | 237 to 257 nM | CCCCN(CCCC)C(=O)c1cc(C)n(-c2ccc(NC(=O)c3csc(N4CCOCC4)n3)cc2C(=O)N2Cc3ccccc3C[C@H]2CO)n1 [Example 122] |
| 276 to 287 nM | 192 to 194 nM | CCCCN(CCCC)C(=O)c1cc(C)n(-c2ccc(NC(=O)Cc3ccccc3Cl)cc2C(=O)N2Cc3ccccc3C[C@H]2CO)n1 [Example 139] |
| 3070 to 3910 nM | 1330 to 1560 nM | CCCCN(CCCC)C(=O)c1cc(C)n(-c2ccc(NC(=O)C(C)c3noc4ccccc34)cc2C(=O)N2Cc3ccccc3C[C@H]2CO)n1 (stereo partly shown) [Example 161] |
| 537 to 546 nM | 436 to 500 nM | CCCCN(CCCC)C(=O)c1cc(C)n(-c2ccc(NC(=O)Cc3ccc(F)cc3Cl)cc2C(=O)N2Cc3ccccc3C[C@H]2CO)n1 [Example 158] |
| 455 to 539 nM | 426 to 594 nM | CCCCN(CCCC)C(=O)c1cc(C)n(-c2ccc(NC(=O)c3ccc(NS(=O)(=O)Cc4ccccc4)cc3)cc2C(=O)N2Cc3ccccc3C[C@H]2CO)n1 [Example 143] |
| 2470 to 2630 nM | 1970 to 2070 nM | CCCCN(CCCC)C(=O)c1cc(C)n(-c2ccc(NC(=O)c3ccc(Oc4ccccc4)nc3)cc2C(=O)N2Cc3ccccc3C[C@H]2CO)n1 [Example 141] |
| 5790 to 6250 nM | 2380 to 4330 nM | CCCCN(CCCC)C(=O)c1cc(C)n(-c2ccc(NC(=O)c3ccc(SC(F)(F)F)cc3)cc2C(=O)N2Cc3ccccc3C[C@H]2CO)n1 [Example 154] |
| 27.8 to 36.6 nM | 23.3 to 30.8 nM | CCCCN(CCCC)C(=O)c1cc(C)n(-c2ccc(NC(=O)Cc3ccc(OC)c(Br)c3)cc2C(=O)N2Cc3ccccc3C[C@H]2CO)n1 [Example 131] |
| 229 to 238 nM | 180 to 193 nM | CCCCN(CCCC)C(=O)c1cc(C)n(-c2ccc(NC(=O)Cc3cccc(C#N)c3)cc2C(=O)N2Cc3ccccc3C[C@H]2CO)n1 [Example 160] |
